Tests used:
[1] = test system: disseminated model of AML; details: combination therapy with cytarabine; cited from earlier work
PLK1 = PLK1 (Homo sapiens, UniProt P53350); details: among a panel of 296 kinases, including other PLK members; cited from earlier work
[2] = in vivo; cited from earlier work
cancer cell lines = details: cited from earlier work
[3] = test system: patients with relapsed or refractory acute myeloid leukemia (R/R AML); test: Phase 1b/2 study (NCT03303339) of onvansertib in combination with decitabine; type: in vivo; details: oral, days 1 through 5, in combination with decitabine 20 mg/m^2 intravenously
Text: The terms “complete remission” or “complete recovery” as used herein can refer to the absence of extramedullary disease (e.g., leukemic cell aggregates outside of bone marrow), <5% blasts in the bone marrow, absence of circulating blasts and blasts with Auer rods (e.g., inclusion bodies), and platelets≥100×10^9/L and neutrophils≥1.0×10^9/L. The term “complete remission with incomplete hematologic recovery” can refer to all CR criteria except for residual neutropenia (neutrophils<1.0×10^9/L) or thrombocytopenia (platelets<100×10^9/L). The term “morphologic leukemia free state” (MFLS) can refer to <5% blasts in the bone marrow with no blasts with Auer rods and no extramedullary disease. The terms “partial response” or “partial remission” can refer to the presence of all hematologic criteria of CR, decrease of bone marrow blast percentage to 5% to 25%, and/or decrease of pretreatment bone marrow blast percentage by at least 50%. The term “Bone marrow response” (BMR) can refer to at least 50% decrease in bone marrow blast from baseline. In some embodiments, the term “overall response rate” (ORR) can refer to the combined CR, CRi, MFLS, and PR. In some embodiments a combined CR/CRi value is reported. […]

[4] = test system: adult subjects with advanced/metastatic solid tumors; details: cited from earlier work
[5] = test system: HT29 human colon adenocarcinoma xenografts; details: combination with irinotecan compared to each agent alone; cited from earlier work
[6] = rodent and nonrodent species; cited from earlier work
[7] = test system: cell lines, both from solid as well as hematologic tumors; details: large number of cell lines; cited from earlier work
xenograft tumor = details: well tolerated doses, oral administration; cited from earlier work

PLK1, sequence (P53350 whole entry): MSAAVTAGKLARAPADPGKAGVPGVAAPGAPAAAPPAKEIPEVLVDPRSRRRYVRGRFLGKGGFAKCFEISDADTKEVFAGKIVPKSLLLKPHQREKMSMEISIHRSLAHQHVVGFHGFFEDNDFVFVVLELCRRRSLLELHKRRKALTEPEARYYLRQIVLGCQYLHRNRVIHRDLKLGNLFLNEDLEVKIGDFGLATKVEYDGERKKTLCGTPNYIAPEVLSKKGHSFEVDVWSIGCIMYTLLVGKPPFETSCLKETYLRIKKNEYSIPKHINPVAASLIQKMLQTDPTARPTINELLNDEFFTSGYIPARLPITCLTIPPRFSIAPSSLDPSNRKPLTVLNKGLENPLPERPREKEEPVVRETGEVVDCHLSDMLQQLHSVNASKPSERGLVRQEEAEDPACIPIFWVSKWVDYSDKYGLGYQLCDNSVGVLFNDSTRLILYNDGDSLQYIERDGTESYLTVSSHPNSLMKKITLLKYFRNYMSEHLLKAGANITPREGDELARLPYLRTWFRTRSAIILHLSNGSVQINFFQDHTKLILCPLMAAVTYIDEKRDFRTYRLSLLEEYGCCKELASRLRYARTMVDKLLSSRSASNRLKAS

CN1CCN(c2ccc(OC(F)(F)F)c(Nc3ncc4c(n3)-c3c(c(C(N)=O)nn3CCO)CC4)c2)CC1 [onvansertib, 1-(2-hydroxyethyl)-8-{[5-(4-methylpiperazin-1-yl)-2-(trifluoromethoxy)phenyl]amino}-4,5-dihydro-1H-pyrazolo[4,3-h] quinazoline-3-carboxamide]
survival of animals [1]: prolonged survival
specificity for PLK1 (PLK1): high specificity
half-life [2]: about 24 hours
effect on cell cycle (cancer cell lines): potently causes a mitotic cell-cycle arrest followed by apoptosis
maximum tolerated dose [3]: 60 mg/m^2
recommended phase 2 dose ([4]; advanced/metastatic solid tumors): 24 mg/m^2
primary dose-limiting toxicities ([4]; in vivo): neutropenia and thrombocytopenia
patients with stable disease ([4]; of 16 evaluable patients): 5 patients
recovery of hematologic toxicities ([4]; reversible): ≤ 3 weeks
tumor regression [5]: enhanced tumor regression
oral bioavailability [6]: good oral bioavailability
potency in proliferation assays [7]: low nanomolar activity
xenograft tumor growth (xenograft tumor): inhibits xenograft tumor growth

Reference: patent US12637718B2, “Predictive biomarkers for onvansertib treatment” (Cardiff Oncology, Inc., priority 2021, dated 2026)
